The source of these data is patent publication US20240067651A1 (Biohaven Therapeutics Ltd., priority 2019, published 2024).

A short description of data set [1]: Caco-2 Permeability Assay. The class given is in vitro ADME, human. The following applies: human. In outline:
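Bidirectional transport at 37 °C for 90 min, 10 μM donor concentration, with or without Pgp inhibitor, across 21-day Caco-2 monolayers with TEER >600 […] in HEPES-buffered HBSS, pH 7.4. LC-MS/MS of donor and receiver samples gives Papp, B→A/A→B efflux ratio and mass recovery.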
(In general: Passage across Caco-2 layers is used to estimate intestinal permeability.)

Data set [2] is described as follows: Stability in Simulated Gastric Fluid (SGF). More on the design: key: % parent compound remaining relative to 0-minute sample. The class given is in vitro ADME. Put shortly: (§1)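 Percent of parent remaining relative to time zero was measured by LC-MS/MS over 0–60 min at 37 °C, 150 rpm. Test compound was 2 μg/mL final in pepsin-containing SGF, pH 1.2, or pancreatin-containing SIF, pH 6.8. Degradation half-life was derived from the log-linear decay where enough points allowed.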

Data set [3] can be described thus: Stability in Simulated Intestinal Fluid (SIF). The class given is in vitro ADME. More on the design: key: % parent compound remaining relative to 0-minute sample. Put shortly: as §1
The next data set is described as follows: Plasma Stability. The class given is in vitro ADME, human. The following applies: % remaining at 1 h, human plasma, 1 μM, 37° C. In outline:
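Parent compound quantified by LC-MS/MS after acetonitrile precipitation, reported as percent of control remaining (triplicate). Incubation: 1 hour, 37° C, fresh human plasma, compound at 1 μM.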

Where [4] appears, read: Caco-2, pH 7.4, donor 10 μM, 90 minutes, 37° C., direction not given.
The mark [5] stands for this setting: % remaining at 1 h, SGF with pepsin pH 1.2, 2 μg/mL, 37° C.
Where [6] appears, read: % remaining at 1 h, SIF with pancreatin pH 6.8, 2 μg/mL, 37° C.
The mark [7] stands for this setting: bare number, no % and no time given.
Setting [8] is: Caco-2, pH 7.4, no unit printed at the place (tables the 9th table and the 10th table have no head).

SMILES strings stand for the structures.

As for `COCCOCCN(C)C(=O)OCSc1nc(=O)c2[nH]ccc2n1CCOC(C)C` [Example 88, ({4-Oxo-1-[2-(propan-2-yloxy)ethyl]-1H,4H,5H-pyrrolo[3,2-d]pyrimidin-2-yl}sulfanyl)methyl N-[2-(2-methoxyethoxy)ethyl]-N-methylcarbamate], the Papp (commonly the rate of passage across a membrane or cell layer, normalised by area and donor concentration) at 90 min, 10 µM in data set [1] (setting [4]) turned out to be 0.751 ×10⁻⁶ cm/s. The SGF in data set [2] (setting [5]) was 99%. Further, in data set [3] (setting [6]), the SIF was 64%. Besides, in “Plasma Stability”, the “human Plasma stability” value is 100%.
The matching figures for `COCCOCCN(C)C(=O)OCSc1nc(=O)c2c(ccn2COC(=O)N(C)CCOCCOC)n1CCOC(C)C` [Example 89, (2-{[({[2-(2-methoxyethoxy)ethyl](methyl)carbamoyl}oxy)methyl]sulfanyl}-4-oxo-1-[2-(propan-2-yloxy)ethyl]-1H,4H,5H-pyrrolo[3,2-d]pyrimidin-5-yl)methyl N-[2-(2-methoxyethoxy)ethyl]-N-methylcarbamate]: 0.488 ×10⁻⁶ cm/s, 99%, 65% and 100%.
`CC(C)OCCn1c(=S)[nH]c(=O)c2c1ccn2COC(=O)OC(C)C` [Example 90, {4-oxo-1-[2-(propan-2-yloxy)ethyl]-2-sulfanylidene-1H,2H,3H,4H,5H-pyrrolo[3,2-d]pyrimidin-5-yl}methyl propan-2-yl carbonate] displayed an apparent permeability (Papp) at 90 min, 10 µM in data set [1] (setting [4]) of 18 ×10⁻⁶ cm/s. The SGF in data set [2] (setting [5]) is 77% remaining. Besides, the SIF in data set [3] (setting [6]) is 56% remaining. Moreover, in “Plasma Stability”, the “human Plasma stability” value is on record as 0% remaining.
`CC(C)OCCn1c(SCOC(=O)OC(C)C)nc(=O)c2c1ccn2COC(=O)OC(C)C` [Example 91, {4-oxo-2-[{{[(propan-2-yloxy)carbonyl]oxy}methyl)sulfanyl]-1-[2-(propan-2-yloxy)ethyl]-1H,4H,5H-pyrrolo[3,2-d]pyrimidin-5-yl}methyl propan-2-yl carbonate]: the Papp at 90 min, 10 µM in data set [1] (setting [4]) came to 14.2 ×10⁻⁶ cm/s. The SGF in data set [2] (setting [5]) is reported as 98% remaining. Also, the SIF in data set [3] (setting [6]) is 99% remaining. In “Plasma Stability”, the “human Plasma stability” value amounted to 1% remaining.
The molecule `COCCOCCC(=O)OCn1ccc2c1c(=O)[nH]c(=S)n2CCOC(C)C` [Example 93, {4-oxo-1-[2-(propan-2-yloxy)ethyl]-2-sulfanylidene-1H,2H,3H,4H,5H-pyrrolo[3,2-d]pyrimidin-5-yl}methyl 3-(2-methoxyethoxy)propanoate] registered a Papp at 90 min, 10 µM in data set [1] (setting [4]) of 16.8 ×10⁻⁶ cm/s. Moreover, in data set [2] (setting [7]), the SGF is recorded as 99. Besides, the SIF in data set [3] (setting [7]) is given as 38. Also, the “human Plasma stability” value in “Plasma Stability” is listed as 0% remaining.
Turning to `CC(C)OCCn1c(SCOC(=O)N(C)CC(F)(F)F)nc(=O)c2[nH]ccc21` [Example 94, ({4-oxo-1-[2-(propan-2-yloxy)ethyl]-1H,4H,5H-pyrrolo[3,2-d]pyrimidin-2-yl}sulfanyl)methyl N-methyl-N-(2,2,2-trifluoroethyl)carbamate], the Papp at 90 min, 10 µM in data set [1] (setting [4]) came out at 15.1 ×10⁻⁶ cm/s. The SGF in data set [2] (setting [7]) is 99. Also, the SIF in data set [3] (setting [7]) was 95. Besides, the “human Plasma stability” value in “Plasma Stability” is given as 99% remaining.
The molecule `CC(C)OCCn1c(SCOC(=O)N(C)CC(F)(F)F)nc(=O)c2c1ccn2COC(=O)N(C)CC(F)(F)F` [Example 95, {2-[{{[methyl(2,2,2-trifluoroethyl)carbamoyl]oxy}methyl)sulfanyl]-4-oxo-1-[2-(propan-2-yloxy)ethyl]-1H, 4H,5H-pyrrolo[3,2-d]pyrimidin-5-yl}methyl N-methyl-N-(2,2,2-trifluoroethyl)carbamate] came in with a Papp at 90 min, 10 µM in data set [1] (setting [4]) of 18.8 ×10⁻⁶ cm/s. For the same molecule, in data set [2] (setting [7]), the SGF is on record as 100. Besides, the SIF in data set [3] (setting [7]) is listed as 95. In the data set “Plasma Stability”, the “human Plasma stability” value is recorded as 99% remaining.
The matching figures for `CC(C)OCCn1c(SCOC(=O)N(CC(F)(F)F)CC(F)(F)F)nc(=O)c2[nH]ccc21` [Example 96, ({4-oxo-1-[2-(propan-2-yloxy)ethyl]-1H,4H,5H-pyrrolo[3,2-d]pyrimidin-2-yl}sulfanyl)methyl N,N-bis(2,2,2-trifluoroethyl)carbamate]: 20.3 ×10⁻⁶ cm/s, 98, 97 and 98% remaining.
The like results for `CC(C)OCCn1c(SCOC(=O)N(CC(F)(F)F)CC(F)(F)F)nc(=O)c2c1ccn2COC(=O)N(CC(F)(F)F)CC(F)(F)F` [Example 97, {2-[{{[bis(2,2,2-trifluoroethyl)carbamoyl]oxy}methyl)sulfanyl]-4-oxo-1-[2-(propan-2-yloxy)ethyl]-1H,4H,5H-pyrrolo[3,2-d]pyrimidin-5-yl}methyl N,N-bis(2,2,2-trifluoroethyl)carbamate] were, in that order, 30.8 ×10⁻⁶ cm/s, 98, 96 and 99% remaining.
The matching figures for `CC(C)OCCn1c(=S)n(COC(=O)N(CC(F)(F)F)CC(F)(F)F)c(=O)c2c1ccn2COC(=O)N(CC(F)(F)F)CC(F)(F)F` [Example 98, [3-({[bis(2,2,2-trifluoroethyl)carbamoyl]oxy}methyl)-4-oxo-1-[2-(propan-2-yloxy)ethyl]-2-sulfanylidene-1H, 2H,3H,4H,5H-pyrrolo[3,2-d]pyrimidin-5-yl]methyl N,N-bis(2,2,2-trifluoroethyl)carbamate]: 6.53 ×10⁻⁶ cm/s, 95, 80 and 99% remaining.
Consider `CC(C)OCCn1c(=S)[nH]c(=O)c2c1ccn2C(C)OC(=O)OC1CCN(C(=O)OC(C)(C)C)CC1` (stereo not shown) [Example 99, tert-Butyl 4-{[(1-{4-oxo-1-[2-(propan-2-yloxy)ethyl]-2-sulfanylidene-1H,2H,3H,4H,5H-pyrrolo[3,2-d]pyrimidin-5-yl}ethoxy)carbonyl]oxy}piperidine-1-carboxylate], for which the Papp at 90 min, 10 µM in data set [1] (setting [4]) was 0.111 ×10⁻⁶ cm/s. The SGF in data set [2] (setting [5]) was 0%. Further, the SIF in data set [3] (setting [6]) is recorded as 0%. Further, the “human Plasma stability” value in the data set “Plasma Stability” amounted to 5%.
In data set [1] (setting [8]), `CC(C)OCCn1c(=S)[nH]c(=O)c2c1ccn2COC(=O)NCC(F)(F)F` [Example 100, {4-oxo-1-[2-(propan-2-yloxy)ethyl]-2-sulfanylidene-1H,2H,3H,4H,5H-pyrrolo[3,2-d]pyrimidin-5-yl}methyl N-(2,2,2-trifluoroethyl)carbamate] returned a Papp at 90 min, 10 µM of 27.7 ×10⁻⁶ cm/s. Further, in data set [2] (setting [5]), the SGF was 99%. Further, the SIF in data set [3] (setting [6]) was 97%. Also, the “human Plasma stability” value in “Plasma Stability” turned out to be 97%.
`COC(=O)[C@H](CCCCNC(=O)OC(C)(C)C)NC(=O)OCn1ccc2c1c(=O)[nH]c(=S)n2CCOC(C)C` [Example 101, methyl (2S)-6-{[(tert-butoxy)carbonyl]amino}-2-{[{{4-oxo-1-[2-(propan-2-yloxy)ethyl]-2-sulfanylidene-1H,2H,3H,4H,5H-pyrrolo[3,2-d]pyrimidin-5-yl}methoxy)carbonyl]amino}hexanoate] returned a Papp at 90 min, 10 µM in data set [1] (setting [8]) of 1.46 ×10⁻⁶ cm/s. For the same molecule, the SGF in data set [2] (setting [5]) was 75%. Besides, the SIF in data set [3] (setting [6]) is reported as 96%. In addition, in “Plasma Stability”, the “human Plasma stability” value was found to be 97%.
As for `COC(=O)[C@H](CCCCNC(=O)OC(C)(C)C)NC(=O)OCn1ccc2c1c(=O)[nH]c(=S)n2CCOC(C)C` [Example 102, Methyl (2S)-6-{[(tert-butoxy)carbonyl]amino}-2-{[({4-oxo-1-[2-(propan-2-yloxy)ethyl]-2-sulfanylidene-1H,2H,3H,4H,5H-pyrrolo[3,2-d]pyrimidin-5-yl}methoxy)carbonyl]amino}hexanoate], the Papp at 90 min, 10 µM in data set [1] (setting [4]) is 1.46 ×10⁻⁶ cm/s. For the same molecule, the SGF in data set [2] (% remaining at 1 h, SGF with pepsin pH 1.2, 2 μg/mL, 37° C., listed as EXAMPLE 102) is reported as 75%. Besides, in data set [3] (% remaining at 1 h, SIF with pancreatin pH 6.8, 2 μg/mL, 37° C., listed as EXAMPLE 102), the SIF was 96%. Also, the “human Plasma stability” value in the data set “Plasma Stability” (listed as EXAMPLE 102) amounted to 97%.
`COC(=O)[C@H](CCCCNC(=O)OC(C)(C)C)NC(=O)n1ccc2c1c(=O)[nH]c(=S)n2CCOC(C)C` [Example 103, Methyl (2S)-6-{[(tert-butoxy)carbonyl]amino}-2-({4-oxo-1-[2-(propan-2-yloxy)ethyl]-2-sulfanylidene-1H,2H,3H,4H,5H-pyrrolo[3,2-cl]pyrimidine-5-carbonyl}amino)hexanoate] returned a Papp at 90 min, 10 µM in data set [1] (setting [4]) of 13.5 ×10⁻⁶ cm/s. The SGF in data set [2] (setting [5]) was 96%. Also, in data set [3] (setting [6]), the SIF is 96%. Further, the “human Plasma stability” value in the data set “Plasma Stability” is given as 92%.
In turn, `COCCOCCOC(=O)OCSc1nc(=O)c2c(ccn2COC(=O)OCCOCCOC)n1CCOC(C)C` [Example 104, (2-{[{{[2-(2-methoxyethoxy)ethoxy]carbonyl}oxy)methyl]sulfanyl}-4-oxo-1-[2-(propan-2-yloxy)ethyl]-1H,4H,5H-pyrrolo[3,2-d]pyrimidin-5-yl)methyl 2-(2-methoxyethoxy)ethyl carbonate] yielded a Papp at 90 min, 10 µM in data set [1] (setting [8]) of 0.276 ×10⁻⁶ cm/s. The SGF in data set [2] (setting [5]) is 96%. Further, the SIF in data set [3] (setting [6]) is recorded as 70%. The “human Plasma stability” value in “Plasma Stability” was 18%.
